From US20250269043A1, “TARGETED BIFUNCTIONAL DEGRADERS” (YALE UNIVERSITY, priority 2019, published 2025)

Key:
HepG2 cells [1] = assay: DNP-GN3-mediated endocytosis of fluorescently labeled α-DNP antibody by adherent HepG2 cells; format: cell-based, human; conditions: sodium azide and 2-deoxyglucose as combined treatment; FIG. 89
Procedure: It was next explored whether DNP-GN3 mediates the endocytosis of fluorescently labeled α-DNP antibody.
To explore the cellular mechanism of antibody uptake, cells were treated with chemical inhibitors of several endocytic pathways (FIG. 89).

HepG2 cells [2] = assay: DNP-AF3-mediated α-DNP antibody endocytosis by HepG2 cells (flow cytometry); format: cell-based, human; conditions: 40 nM DNP-AF3, 100 nM antibody; for effect of endocytic pathway inhibitors on DNP-AF3-mediated α-DNP antibody endocytosis: FIG. 106; for effect of competitive binders on DNP-AF3-mediated α-DNP antibody endocytosis: ASF 2.07 μM, AF and GalNAc 1.25 mM, FIG. 105
Procedure: The intracellular fluorescence of cells that were incubated at 37° C. with both fluorescently labeled α-DNP antibody and DNP-AF3 for a given amount of time was examined. Cells were then washed, removed from the plate with trypsin, and subjected to flow cytometry.
It was then determined if reagents which inhibit ternary complex formation inhibit endocytosis mediated by DNP-AF3.
Next, whether inhibitors of specific endocytic pathways inhibited α-DNP antibody endocytosis was determined (FIG. 106).

HepG2 cells [3] = assay: MIF-GN3-mediated endocytosis of Alexa 488-labeled human MIF by HepG2 cells; conditions: for effect of endocytic pathway inhibitors on MIF-GN3-mediated MIF endocytosis: MIF 100 nM, MIF-GN3 200 nM, FIG. 132
Procedure: Human MIF protein was fluorescently labeled with Alexa 488 NHS ester, then incubated with HepG2 cells in the presence of varying levels of MIF-GN3.
The ability of MIF-GN3 to mediate MIF endocytosis over a wide range of target protein concentrations was assessed.
Next, inhibitors of various endocytic pathways were utilized to determine if MIF-GN3 mediates MIF endocytosis in a manner consistent with ASGPR (FIG. 132).

human MIF [4] = molecular target: T1, human MIF (Homo sapiens, UniProt P14174); assay: Depletion of human MIF from cell culture supernatant (sandwich ELISA); format: cell-based; conditions: 24 hours; FIG. 128B
T1 sequence (P14174 2-115 limits assumed): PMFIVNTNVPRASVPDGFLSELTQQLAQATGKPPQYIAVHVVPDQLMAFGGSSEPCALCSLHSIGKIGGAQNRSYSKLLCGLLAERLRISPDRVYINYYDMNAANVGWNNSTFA
Procedure: The ability of bifunctional MIF-binding molecules to mediate the depletion of human MIF from cell culture was investigated. In these assays, human MIF was present at a concentration of 100 nM, and a sandwich ELISA assay was utilized to measure the concentration of human MIF remaining in the cell culture supernatant. The closely related bifunctional molecules MIF-GN3, MIF-PEG2-GN3, and MIF-PEG4-GN3 were used, as well as the structurally dissimilar molecule MIF-NVS-PEG3-GN3. […] Based on the ease of its synthesis and its efficacy in this experiment, MIF-GN3 was utilized for further studies. It was next investigated whether the MIF inhibitor 3w mediates MIF depletion from cell culture supernatant. […] When cells were treated with 3w, no depletion of exogenous MIF protein was observed after 24 hours (FIG. 128B).
Bifunctional molecules containing optimized ASGPR-binding motifs are also capable of mediating MIF depletion from cell culture supernatant (FIG. 129). The MIF-binding molecule MIF-AF1, which contains only a single ASGPR-binding sugar, was not effective at mediating depletion of MIF from supernatant at any concentration tested. It is hypothesized that this is due to the compound's low predicted affinity for ASGPR (μM range). […] At a concentration of either 200 nM or 1 μM, MIF-AF2 mediated nearly 100%/o depletion of MLF from the cell culture supernatant after 48 hours. […] In contrast to these molecules, which utilize optimized synthetic ASGPR ligands, the GalNAc-based molecule MIF-GN3 mediated only 67.0% and 56.0% removal of MIF from supernatant after 48 hours at concentrations of 1 μM and 200 nM, respectively. […] At a concentration of 40 nM (4.0 pmol of molecule), MIF-AF3 mediates the removal of 83.2% of MIF present in the cell culture supernatant, or 8.32 pmol of human MIF protein. Therefore, it was concluded that under the conditions of this experiment, MIF-AF3 mediates the depletion of 2.08 molar equivalents of MIF protein.

PC3 cells = assay: PC3 human prostate cancer cell tumor model in mice; format: in vivo; conditions: MIF-GN3 at 10 mpk; control arms DNP-GN3 and 3w; FIG. 138
Procedure: The ability of MIF-GN3 to mediate the depletion of MIF in a therapeutically relevant disease model was investigated. […] An experiment was conducted to determine whether the bifunctional molecule MIF-GN3 can deplete sufficient human MIF from serum to slow PC3 tumor growth. Mice were injected with an aliquot of PC3 cells, and the size of the resultant tumors as well as the levels of human MIF in serum were monitored over five weeks. […] Five weeks after the initial PC3 cell injection, the first of the mice reached maximal tumor size ([…]) and was sacrificed (FIG. 138). […] The decrease in human MIF levels mediated by MIF-GN3 is consistent with a mechanism of action in which MIF-GN3 mediates the depletion and degradation of circulating MIF protein. While the α-MIF antibody would not necessarily be expected to decrease the levels of human MIF, it is possible that the antibody mediates MIF neutralization in a manner which masks its signal as determined by ELISA. Alternatively, the α-MIF antibody may mediate depletion or degradation of huMIF by some endocytic mechanism. Another possible explanation is that the α-MIF antibody decrease serum levels of active human MIF to such an extent at early time points that PC3 cells proliferate much more slowly, and therefore fewer cells are actively secreting human MIF.
Mice were sacrificed when their tumor volumes reached 1000 mm^3. […] At this same time point, less than 25% of the mice in any other arm had survived.

human MIF [5] = molecular target: T1, human MIF; assay: Depletion of injected recombinant human MIF from serum in mice; format: in vivo; set-up: injected into mice; conditions: control molecules injected along with human MIF; FIG. 136
Procedure: In vivo human MIF depletion experiments were undertaken to determine whether MIF-GN3 can mediate the depletion of injected recombinant human MIF from serum in mice. Mice were injected with five μg of the human MIF protein. In this experiment, one group of mice was also injected with a single 10 mpk dose of MLF-GN3 along with human MIF protein. It was observed that after four hours, the average level of human MIF in serum in the PBS-treated mice was 1.76 ng/mL (FIG. 134). In mice treated with 10 mpk MIF-GN3, however, the concentration of human MIF in serum was 0.68 ng/mL. One day after the initial injection, human MIF levels had reached background levels for both conditions. […] It was hypothesized that, due to the short half-life of human MIF in serum, investigating human MIF levels at earlier time points may be more informative.
Next, an experiment was performed to determine whether MIF-GN3 could enhance MIF clearance at time points earlier than four hours. Mice were coinjected with recombinant human MIF and 10 mpk MIF-GN3 via either i.p. or i.v. routes. For the PBS control arms, human MIF was injected with PBS. It was observed that in the absence of MIF-GN3, there was a spike in huMIF levels in circulation after 30 minutes (FIG. 135). In the presence of MIF-GN3, however, levels of MIF protein remained low at 30 minutes and no spike in its concentration was observed. By two hours, the levels of human MIF in circulation decreased to background levels.
In a further experiment, whether an inhibitor of the MIF protein (3w) is able to mediate the protein's depletion from serum was determined. A bifunctional molecule that mediates the depletion of α-DNP antibody from serum was also assayed as a negative control. Neither of these molecules was expected to mediate the formation of a ternary complex between human MIF protein and ASGPR.

α-DNP antibody = assay: In vivo depletion of α-DNP antibody from serum in mice (ELISA); conditions: FIG. 95
Procedure: FIG. 94 illustrates that serum levels of α-DNP antibody decrease more rapidly following repeated treatment with DNP-GN3. Serum antibody levels were measured using an ELISA assay. Each experimental group contained three mice. Statistical differences in experiments involving in vivo depletion of α-DNP antibody were assessed by repeated measures two-way ANOVA with Tukey's tests for post-hoc comparison of simple effects between each of the treatment groups and PBS.
Single doses of DNP-GN3 were also found to be efficacious at mediating α-DNP antibody depletion, albeit less effectively than daily dosing (FIG. 96). […] Therefore, it was concluded that DNP-GN3 is able to mediate the depletion of a monoclonal antibody from serum, and functions across a wide range of target protein concentrations and dosing regimens.
DNP-GN3 was also found to be efficacious in depleting polyclonal α-DNP antibody from serum collected from mice immunized with DNP-keyhole limpet haemocyanin (KLH) (FIG. 97). […] Thus, the small molecule DNP-GN3 is not restricted in function to only monoclonal mouse antibodies, but is also effective at removing polyclonal α-DNP antibodies from circulation in mice.

[6] = molecular target: human IgG (Alexa 488-labeled) (human); assay: cell-based or functional assay
[7] = molecular target: asialoglycoprotein receptor on the surface of immortalized human hepatocyte HepG2 cells (human) (UniProt P07306); assay: cell-based or functional assay
Sequence of asialoglycoprotein receptor on the surface of immortalized human hepatocyte HepG2 cells (human) (P07306 whole entry, chain 1 of 2): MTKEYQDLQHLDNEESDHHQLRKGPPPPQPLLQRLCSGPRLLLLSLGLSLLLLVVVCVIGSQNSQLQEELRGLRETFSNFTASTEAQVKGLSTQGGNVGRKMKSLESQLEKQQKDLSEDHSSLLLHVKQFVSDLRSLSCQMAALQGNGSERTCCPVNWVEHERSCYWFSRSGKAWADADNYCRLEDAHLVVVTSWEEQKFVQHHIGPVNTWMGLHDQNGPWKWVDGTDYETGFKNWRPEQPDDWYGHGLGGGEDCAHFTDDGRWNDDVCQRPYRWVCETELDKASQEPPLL
Sequence of asialoglycoprotein receptor on the surface of immortalized human hepatocyte HepG2 cells (human) (P07307 whole entry, chain 2 of 2, further chain): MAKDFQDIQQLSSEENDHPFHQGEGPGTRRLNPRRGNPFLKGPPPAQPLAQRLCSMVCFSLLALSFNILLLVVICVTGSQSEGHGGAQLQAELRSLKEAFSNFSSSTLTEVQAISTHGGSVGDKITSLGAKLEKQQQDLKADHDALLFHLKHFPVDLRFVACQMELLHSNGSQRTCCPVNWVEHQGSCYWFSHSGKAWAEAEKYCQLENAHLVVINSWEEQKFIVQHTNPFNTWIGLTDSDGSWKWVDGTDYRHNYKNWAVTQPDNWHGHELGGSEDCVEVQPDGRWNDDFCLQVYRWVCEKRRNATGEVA

[8] = molecular target: asialoglycoprotein receptor on the surface of immortalized human hepatocyte HepG2 cells (human) (UniProt P07306); assay: flow cytometry competition on HepG2 cells: ASOR against DNP-AF3 (40 nM)-mediated association of α-DNP antibody (100 nM) with ASGPR

Row | Compound | effect of endocytic pathway inhibitors on intracellular fluorescence (DNP-GN3-mediated uptake) (HepG2 cells [1]) | effect of endocytic pathway inhibitors on DNP-AF3-mediated α-DNP antibody endocytosis (HepG2 cells [2]) | effect of endocytic pathway inhibitors on MIF-GN3-mediated MIF endocytosis (HepG2 cells [3]) | other results
1 | O=CC[C@@H](O)[C@H](O)[C@H](O)CO [2-deoxyglucose] | significantly decreased | significant decrease | decreased significantly | –
2 | Oc1ccc(-n2cc(-c3ccc4cc(OCCOCCN5CCOCC5)ccc4n3)nn2)cc1F [Compound 3w] | – | – | – | depletion of exogenous MIF protein from cell culture supernatant (human MIF [4]): no depletion; tumor growth (PC3 cells): not found to decrease tumor growth; human MIF concentration in serum compared to the PBS control (human MIF [5]): no significant decreases
3 | C=C1[C@@H](C)[C@H]2[C@H](Cc3ccccc3)NC(=O)[C@]23[C@H](OC(C)=O)/C=C/[C@@](C)(O)C(=O)[C@@H](C)C/C=C/[C@H]3[C@@H]1O [CytD] | – | non-significant decrease | – | –
4 | O=C(CCOCC(COCCC(=O)NCCOCCOCCO)(COCCC(=O)NCCOCCOCCO)NC(=O)CNC(=O)COCCOCCOCCNc1ccc([N+](=O)[O-])cc1[N+](=O)[O-])NCCOCCOCCO [DNP-OH3] | – | – | – | antibody depletion from serum after negative control compound (α-DNP antibody): No accelerated antibody depletion; effect of competitive binders on DNP-AF3-mediated α-DNP antibody endocytosis (HepG2 cells [2]): decreased to near-background levels
5 | CC(=O)N[C@H]1C(O)O[C@H](CO)[C@H](O)[C@@H]1O (stereo partly shown) [GalNAc, N-acetylgalactosamine] | – | – | – | effect of competitive binders on DNP-AF3-mediated α-DNP antibody endocytosis (HepG2 cells [2]): significantly decreased
6 | N=C(N)NC(=O)c1nc(Cl)c(N)nc1N [amiloride, Amiloride] | did not significantly decrease | decrease in cellular fluorescence | did not impact cellular fluorescence significantly | –
7 | O=c1c(-c2ccc(O)cc2)coc2cc(O)cc(O)c12 [genistein, Genistein] | – | did not significantly decrease | – | toxicity of endocytosis inhibitors to cells (HepG2 cells [3]; HepG2 cells in the presence of MIF and MIF-GN3): toxic
8 | COc1ccc2c(c1)c(CC(=O)O)c(C)n2C(=O)c1ccc(Cl)cc1 [indomethacin, Indomethacin] | – | did not significantly decrease | did not decrease | –
9 | CC[C@@]1([C@@H]2O[C@@H]([C@H]3O[C@@](O)(CO)[C@H](C)C[C@@H]3C)C[C@@H]2C)CC[C@H]([C@]2(C)CC[C@]3(C[C@H](O)[C@@H](C)[C@@H]([C@@H](C)[C@@H](OC)[C@H](C)C(=O)O)O3)O2)O1 [monensin, Monensin] | significantly decreased | – | near background levels | –
10 | C[C@@H]1[C@H](O)[C@@H](C)/C=C/C=C/CC/C=C/C=C/C=C/C=C/C(O[C@H]2O[C@H](C)[C@@H](O)[C@H](N)[C@@H]2O)CC2O[C@](O)(CC(O)C(O)CCC(O)CC(O)CC(O)CC(=O)O[C@H]1C)CC(O)C2C(=O)O (stereo partly shown) [nystatin, Nystatin] | did not significantly decrease | did not significantly decrease | did not decrease | –
11 | OC[C@H]1O[C@@](CO)(O[C@H]2O[C@H](CO)[C@@H](O)[C@H](O)[C@H]2O)[C@@H](O)[C@@H]1O [sucrose] | significantly decreased | – | near background levels | –
12 | FcIII-BCN-GN3 (peptide) | – | – | – | uptake of human IgG by HepG2 cells; most effective concentration of FcIII-BCN-GN3 [6]: 1 µM
13 | FcIII-GN3 (oxidized cyclized form) (peptide) | – | – | – | uptake of Alexa 488-labeled human IgG by HepG2 cells; concentration of FcIII-GN3 giving maximal uptake [6]: 200 nM
14 | asialoorosomucoid (ligand) | – | – | – | mean fluorescence of the cell population (DNP-AF3-mediated α-DNP antibody endocytosis, HepG2, flow cytometry); about 1.31e6 without inhibitor (mean fluorescence) [7]: 466000; percent decrease of ternary complex formation at 2.38 µM ASOR [8]: 70%
